Data on 76 compounds can be found in PubChem BioAssay AID1996.

Values after ≈ are worked out from the molar mass of the structure shown.

For the data set the following is noted: buffer; pH 7.4; 200.0 µM.
By kinetic solubility is commonly meant solubility judged after dilution from a stock solution rather than from solid. With `Cc1ccc(C)c(NC(=O)C(CC(=O)O)Cc2ccccc2)c1` (stereo unspecified), the kinetic solubility was > 46.7 µg/mL.

As to `Nc1nc(Cl)cc(-c2ccccc2)n1`, the solubility (kinetic) is 29.3 µg/mL (≈ 142 µM).

With `CCOP(=O)(c1ccc(N(C)C)cc1)C(O)c1ccccc1F` (stereo unspecified), the solubility (kinetic) was > 50.6 µg/mL.

On to `CCc1ccccc1Nc1ncnc2ccccc12.Cl`, for which the kinetic solubility is > 42.9 µg/mL.

As for `O=C(c1ccccc1F)N1CCN(C(=O)C2CC2)CC1`, the solubility (kinetic) was > 41.4 µg/mL.

Regarding `Cc1noc(C)c1-c1nc(CSc2ccc(Cl)cc2)no1`, the kinetic solubility was < 0.2 µg/mL.

Consider `O=C(CC1(CC(=O)N2CCOCC2)CCCC1)Nc1ccc(F)cc1`, for which the solubility (kinetic) was > 52.3 µg/mL.

`Cc1nc(-c2ccc(NC(=O)c3ccco3)cc2)cs1` came in with a kinetic solubility of 18.2 µg/mL (≈ 64 µM).

Consider `Cc1sc2ncnc(N)c2c1C`, for which the solubility (kinetic) was > 26.9 µg/mL.

Regarding `Cc1ccc(OCC(=O)O/N=C(\N)c2ccccn2)cc1`, the solubility (kinetic) is > 42.8 µg/mL.

For the compound `CC(C(=O)Nc1cccc(C#N)c1)N(C)CCOc1ccccc1` (stereo unspecified), the kinetic solubility turned out to be 31.8 µg/mL (≈ 98.3 µM).

For `COc1ccc2oc(=O)c(C(=O)Nc3ccccc3O)cc2c1`, the solubility (kinetic) was 1 µg/mL (≈ 3.21 µM).

Compound `COc1cc2[nH]c(C(=O)N(C)Cc3ccccc3)cc2c(OC)c1OC` came in with a solubility (kinetic) of 35.7 µg/mL (≈ 101 µM).

Take `COC(=O)c1c(NC(C)=O)sc(C)c1C`: the solubility (kinetic) is 31 µg/mL (≈ 136 µM).

Turning to `COc1ccccc1NS(=O)(=O)c1cc(NC(=O)C2CCCO2)ccc1C` (stereo unspecified), the solubility (kinetic) is > 58.6 µg/mL.

As for `Cl.O=C(CN1CCCC1)N1c2ccccc2C=Cc2ccccc21`, the kinetic solubility was > 51.1 µg/mL.

`c1ccc(CNc2nc(-c3ccccn3)nc3ccccc23)cc1` came in with a solubility (kinetic) of 29.1 µg/mL (≈ 93.2 µM).

`COc1ccc(C(=O)Nc2nc3ccccc3s2)c(OC)c1`: the solubility (kinetic) is 1 µg/mL (≈ 3.18 µM).

In the case of `COc1cccc(NC(=O)C(c2ccccc2)N2CCNC(=O)C2)c1` (stereo unspecified), the kinetic solubility was > 50.9 µg/mL.

Consider `Cc1nn(CC(=O)NCc2ccco2)c(C)c1[N+](=O)[O-]`, for which the solubility (kinetic) was > 41.7 µg/mL.

On to `O=C(COc1ccc2ccc(=O)oc2c1)N1CCc2ccccc21`, for which the solubility (kinetic) is < 0.7 µg/mL.

For the compound `Cc1ccccc1OCC(=O)OCC(=O)NCc1ccccc1Cl`, the solubility (kinetic) is 14.1 µg/mL (≈ 40.5 µM).

Take `Cc1cccc(C)c1OCC(=O)Nc1ccc2c(c1)OCCO2`: the kinetic solubility was 23.5 µg/mL (≈ 75 µM).

The compound `COc1cc(OC)cc(C(=O)NC(C)CCc2ccccc2)c1` (stereo unspecified) had a kinetic solubility of 34.2 µg/mL (≈ 109 µM).

On to `CN(c1ccc(C(=O)Nc2ccc(CC#N)cc2)cc1)S(C)(=O)=O`, for which the kinetic solubility stood at 4.2 µg/mL (≈ 12.2 µM).

`CC1=CC(C)(C)NC(=S)N1c1ccccc1C` gave a solubility (kinetic) of 13.6 µg/mL (≈ 55.2 µM).

The compound `O=C1C2CCCN2C(=O)N1CCCN1CCN(c2ccc([N+](=O)[O-])cc2)CC1` (stereo unspecified) yielded a kinetic solubility of 49.4 µg/mL (≈ 128 µM).

On to `CC(C)(C)C(=O)/C(C#N)=C/c1cccs1`, for which the solubility (kinetic) is 10.9 µg/mL (≈ 49.7 µM).

Compound `O=C(Nc1cccc(Cl)c1)N1CCc2ccccc2C1` came in with a kinetic solubility of 1.9 µg/mL (≈ 6.63 µM).

`CC(OC(=O)/C=C/c1ccccc1)C(=O)NC1CCCCC1C` (stereo unspecified) registered a kinetic solubility of 8.4 µg/mL (≈ 26.6 µM).

Turning to `CC1CCCC(NC(=O)Cn2cc(Br)ccc2=O)C1C` (stereo unspecified), the kinetic solubility is > 51.2 µg/mL.

As for `Nc1nnc(SCc2ccccc2F)s1`, the kinetic solubility is > 36.2 µg/mL.

With `C[N+](C)(C)CCOC(=O)CBr.[Br-]`, the solubility (kinetic) was > 45.8 µg/mL.

Consider `N#Cc1c(-c2ccccc2)[nH]c(=O)[nH]c1=O`, for which the solubility (kinetic) is > 32 µg/mL.

`CC1(C)Cc2nc(-c3ccccc3)nc(SCC(=O)N3CCCC3)c2CO1` registered a kinetic solubility of 22.3 µg/mL (≈ 58.1 µM).

Consider `c1cc(CCCc2ccncc2)ccn1`, for which the kinetic solubility is > 29.7 µg/mL.

As for `COc1ccc(-c2cn(-c3ccc(C)cc3C)c(=S)[nH]2)cc1OC`, the kinetic solubility came out at 16.8 µg/mL (≈ 49.3 µM).

`NC(=O)C1c2ccccc2Oc2ccccc21`: the kinetic solubility was found to be 24.8 µg/mL (≈ 110 µM).

`OC(CN1CCN(c2cccc(Cl)c2)CC1)c1ccccc1` (stereo unspecified) returned a solubility (kinetic) of 16.1 µg/mL (≈ 50.8 µM).

As to `Cc1cc(C)nc(N2C(=O)CC(Cc3ccc(Cl)cc3)C2=O)n1` (stereo unspecified), the solubility (kinetic) is > 49.5 µg/mL.

`Cc1ccc(C2NC(=S)NC3=C2C(=O)CCC3)cc1` (stereo unspecified) registered a kinetic solubility of 9 µg/mL (≈ 33 µM).

Compound `C=CCc1cc(C)ccc1OCCCn1ccnc1.O=C(O)C(=O)O` gave a solubility (kinetic) of 29.1 µg/mL.

`COc1ccc(C)cc1CN1C(=O)c2ccccc2C1=O` yielded a kinetic solubility of 4 µg/mL (≈ 14.2 µM).

In turn, `COc1ccc(CNCCc2ccc(Cl)cc2Cl)cc1` displayed a kinetic solubility of 2.1 µg/mL (≈ 6.77 µM).

Turning to `Cc1cccc(NC(=O)c2cccc(C(=O)Nc3cccc(C)n3)c2)n1`, the solubility (kinetic) turned out to be 0.9 µg/mL (≈ 2.6 µM).

As for `CC1CCCN(CCC(=O)Nc2ccc(F)c(F)c2)C1` (stereo unspecified), the kinetic solubility is > 42.3 µg/mL.

Turning to `O=C(NC1CCCCC1)c1ccc2c(c1)OCO2`, the solubility (kinetic) was > 37.1 µg/mL.

The compound `COc1ccccc1-n1ccnc1SCC(=O)NC(C)(C)C` displayed a solubility (kinetic) of 43.9 µg/mL (≈ 137 µM).

For `O=C(Nc1ccccc1)C(=O)c1c[nH]c2ccccc12`, the kinetic solubility was determined as 0.8 µg/mL (≈ 3.03 µM).

On to `Oc1ccc(Nc2nc(-c3cccnc3)cs2)cc1`, for which the solubility (kinetic) was determined as 0.8 µg/mL (≈ 2.97 µM).

Take `O=C(Cn1cccc(C(F)(F)F)c1=O)c1ccc(Cl)cc1`: the solubility (kinetic) is > 47.4 µg/mL.

As for `Cn1cccc1C(=O)OCC(=O)NCc1cccs1`, the solubility (kinetic) is > 41.7 µg/mL.

Turning to `CCCCNC(=O)c1cc(-c2ccc3c(c2)OCO3)on1`, the kinetic solubility worked out at 0.3 µg/mL (≈ 1.04 µM).

`O=C(Nc1cccnc1)c1ccc(C(=O)Nc2cccnc2)cc1` returned a kinetic solubility of 0.8 µg/mL (≈ 2.51 µM).

Regarding `CN1CCN(C(=O)c2cc(Cl)cc(Cl)c2)CC1`, the kinetic solubility was > 41 µg/mL.

`O=C(COC(=O)c1ccc([N+](=O)[O-])cc1)NCCC1=CCCCC1` registered a kinetic solubility of 3.1 µg/mL (≈ 9.33 µM).

In the case of `O=[N+]([O-])c1cc(Cl)ccc1N1CCOCC1`, the solubility (kinetic) amounted to 24.4 µg/mL (≈ 101 µM).

`CCOC(=O)CSC1=NN2CCS(=O)(=O)N=C2S1`: the kinetic solubility was > 46.4 µg/mL.

For the compound `Cc1ccc(CNC(=O)c2ccc3c(c2)NC(=O)CS3)cc1`, the kinetic solubility came out at 3.1 µg/mL (≈ 9.92 µM).

`Cl.c1ccc2c(c1)nc(N1CCCCC1)c1ccccc12` showed a kinetic solubility of 1.8 µg/mL.

As for `CCOC(=O)CSc1nc2ccccc2n2c(C)nnc12`, the kinetic solubility is > 45.4 µg/mL.

For `O=C1NN(c2ccc(F)cc2)C(=O)/C1=C/c1cccs1`, the solubility (kinetic) was > 43.2 µg/mL.

Take `COc1ccc(C(=O)O)cc1S(=O)(=O)N1CCN(Cc2ccc3c(c2)OCO3)CC1`: the kinetic solubility is > 65.2 µg/mL.

In turn, `Cc1cc(C)c(S(=O)(=O)c2ccccc2C(C)C)c(=O)[nH]1` came in with a kinetic solubility of 7.2 µg/mL (≈ 23.6 µM).

With `Cc1ccc(-c2[nH]c3ccccc3c2SCCN)cc1`, the kinetic solubility is > 42.4 µg/mL.

As for `O=C(COc1ccc(Cl)cc1)NCCN1CCCCC1`, the solubility (kinetic) is > 44.5 µg/mL.

On to `O=C(Nc1ccc(Cl)cn1)c1cccc(OCc2ccccc2)c1`, for which the solubility (kinetic) was found to be 0.7 µg/mL (≈ 2.07 µM).

As to `Cc1ccc(CC(=O)NCCN2CCOCC2)cc1`, the kinetic solubility was > 39.4 µg/mL.

With `CC(=O)N(Cc1nc2sc(C)c(C)c2c(=O)[nH]1)C1CCCC1`, the kinetic solubility turned out to be 19.5 µg/mL (≈ 61 µM).

The compound `O=Cc1c(NCc2ccccc2F)c2ccccc2[nH]c1=O` showed a kinetic solubility of 4.2 µg/mL (≈ 14.2 µM).

In the case of `N#Cc1ccc(NC(=S)NC(=O)C2CCCCC2)cc1`, the solubility (kinetic) amounted to 1.6 µg/mL (≈ 5.57 µM).

`CC1CCN(S(=O)(=O)c2ccccc2)CC1` came in with a kinetic solubility of 25.8 µg/mL (≈ 108 µM).

On to `Cc1cc(NS(C)(=O)=O)c(=O)n(Cc2cccc(F)c2)c1`, for which the kinetic solubility is > 46.6 µg/mL.

In the case of `COc1ccc(CCNC(=O)c2cccc3ccccc23)cc1OC`, the solubility (kinetic) is 38 µg/mL (≈ 113 µM).

As for `O=C(Nc1cccnc1Cl)c1noc2c1CCc1ccccc1-2`, the kinetic solubility was < 0.2 µg/mL.

In turn, `NS(=O)(=O)c1ccc(CNC(=O)c2ccc3ccccc3n2)cc1` came in with a kinetic solubility of 3.9 µg/mL (≈ 11.4 µM).
